Experimental data taken from a melting point compilation (Tetko et al.).

Row | melting point [°C] | SMILES
1 | 44 | COc1ccc(Cl)c([N+](=O)[O-])c1
2 | 125 | Cc1cc(C)c(N)c(C(O)c2ccccc2)c1 (stereo not given)
3 | 135 to 137 | COc1ccc(CNC(N)=S)cc1
4 | 170 | O=C(OCC(O)CO)c1ccccc1Nc1ccnc2cc(Cl)ccc12 (stereo not given)
5 | 188 | N#C/C(=C\c1ccccc1O)c1nc2ccccc2s1
6 | 223 | O=C(c1ccc(O)cc1)c1ccc(O)cc1
7 | 146 | CC(=C(CCOC(=O)c1ccccc1)SSC(CCOC(=O)c1ccccc1)=C(C)N(C=O)Cc1cnc(C)nc1N)N(C=O)Cc1cnc(C)nc1N
8 | 135 to 136 | NC(=S)c1ccc(Cl)cc1Cl
9 | 267 to 268 | O=C(O)c1nc2ccccc2nc1O
10 | 156 to 158 | CC(C)(C)OC(=O)N1CCN(C(=O)OCC2c3ccccc3-c3ccccc32)CC1C(=O)O (stereo not given)
11 | 100 to 102 | NC(CSCc1ccccc1)C(=O)Nc1ccc([N+](=O)[O-])cc1 (stereo not given)
12 | 167 | O=Cc1cc(O)ccc1[N+](=O)[O-]
13 | 196 to 203 | O=[N+]([O-])c1ccccc1SC1OC(CO)C(O)C(O)C1O (stereo not given)
14 | 246 to 248 | O=C1Nc2ccccc2CCc2ccccc21
15 | 199 to 205 | O=CC(C=O)c1ccc(C(=O)O)cc1[N+](=O)[O-]
16 | 150 to 152 | NC(=O)c1cccnc1Oc1ccc(Cl)cc1
17 | 240 | O=C1c2ccccc2C(O)(O)C1(O)C1(O)C(=O)c2ccccc2C1(O)O (stereo not given)
18 | 146 | CCOC(=O)CC=C(c1ccc(OC)cc1)C(C)(C)C(=O)OCC
19 | 79 | O=C(O)Cc1ccsc1
20 | 307 | Nc1ccc([N+](=O)[O-])c2c1C(=O)c1c(Cl)ccc(Cl)c1C2=O
21 | 256 to 258 | CCOC(=O)c1c[nH]c(=S)nc1N
22 | 88 | Cc1ccc(/C=C2/C=C(CC(C)C)OC2=O)o1
23 | 88 to 92 | Cc1ccc2c(c1)C(=O)OC2=O

Row | melting point [°C] | SMILES
24 | 106 to 107 | OCc1ccc(-c2cccnc2)cc1
25 | 68 to 70 | CC(=O)c1ccc(CCc2ccccc2)cc1
26 | 121 | CC(=O)Oc1cc(C(F)(F)F)ccc1C(=O)O
27 | 77 to 79 | N#Cc1cccc2c1-c1ccccc1C2
28 | 21 | C#Cc1ccc(C)cc1
29 | 111 | Cc1c(-c2ccccc2)c2ccccc2n1C
30 | 47 | OC(c1ccc(F)cc1)c1ccc(F)cc1
31 | 53 | N#Cc1cccc(N=C=O)c1
32 | 157 to 158 | O=C(O)c1ccc2nonc2c1
33 | 290 | CCn1cc(C(=O)O)c(=O)c2ccc(-c3ccncc3)cc21
34 | 260 | CC(C)N1CSc2nnc(-c3ccc([N+](=O)[O-])cc3)n2C1
35 | 145 | c1ccc2c3c([nH]c2c1)CCCCC3
36 | 240 | NC(Cc1n[nH]c2ccccc12)C(=O)O (stereo not given)
37 | 64 | Cc1ccc(C(c2ccc(Br)cc2)c2ccc(C)o2)o1
38 | 109 to 112 | CC(C)(O)C#Cc1ccc(C=NO)cc1
39 | 14 | O=C1Cc2ccccc21
40 | 159 to 161 | O=Cc1ccc2[nH]cnc2c1
41 | 144 | Cc1c(C)c2ccccc2c2ccccc12
42 | -34.1 | COc1ccccc1C
43 | 223 | CC1(C)OC(=O)C(=NNc2ccc(C(=O)O)cc2)C(=O)O1
44 | 205 | Cc1ccc(C)c(N/N=C(/C#N)c2nc3ccccc3c(=O)[nH]2)c1
45 | 73.5 | O=CN(c1ccccc1)c1ccccc1
46 | 71 | Nc1cccc(Cl)n1

Row | melting point [°C] | SMILES
47 | 25 | C1=CCc2ccccc2C1
48 | 143 to 146 | Cc1cccc(C(N)=NO)c1
49 | 154 | O=C(Nc1cccc(Cl)c1)C(C(F)(F)F)C(F)(F)F
50 | 165 to 167 | Nc1n[nH]c(N)c1Cc1ccc(Cl)cc1
51 | 43 | C1=CC2c3ccccc3C1C21CC1
52 | 61 | Cc1ccc([N+](=O)[O-])cc1I
53 | 71 | O=[N+]([O-])c1ccc(Oc2ccccc2)c([N+](=O)[O-])c1
54 | 304 | O=c1c(O)c(-c2ccc(O)cc2O)oc2cc(O)cc(O)c12
55 | 41 | COc1cc(CCO)ccc1O
56 | 153 to 154 | N#CC(=CNc1ccccn1)C(=O)c1ccccc1
57 | 159 | Cc1cccc(C)c1NC(=O)CN1CCN(CCCC(c2ccc(F)cc2)c2ccc(F)cc2)CC1
58 | 222 | Cc1ccc(C(=O)NS(=O)(=O)c2ccc(N)cc2)cc1C
59 | 172 to 173 | Cc1ccc(C=C2C(N)=NC(=O)N=C2N)cc1
60 | 109 to 112 | CC(=O)c1nc2ccccc2s1
61 | 104 to 109 | CC(C(C)P(c1ccccc1)c1ccccc1)P(c1ccccc1)c1ccccc1 (stereo not given)
62 | 192 | O=C(O)c1ccc(C(F)(F)F)nc1
63 | 142 | CC(C)(C)OC(=O)N[C@H](CC(=O)O)Cc1ccncc1
64 | 69 to 70 | O=S(=O)(Cl)c1ccc(-c2ccno2)s1
65 | 89 | Clc1cccc2cccc(Cl)c12
66 | 96 | N#C/C(=C\c1c(Cl)cccc1Cl)c1nc(-c2ccccc2)cs1
67 | 67 to 69 | Cc1ccc(C#N)cc1C
68 | 216 to 219 | Cc1c(C=NO)c(=O)n(-c2ccccc2)n1C

Second part, the compound before the results:

Row | SMILES | melting point [°C]
69 | O=C1C=CC(=O)c2c(O)ccc(O)c21 | 237
70 | Cc1cncc(N2CCC(CO)CC2)n1 | 103 to 107
71 | Clc1cncc(Oc2ccc(Cl)nn2)c1 | 112 to 114
72 | O=[N+]([O-])c1ccc(I)c([N+](=O)[O-])c1 | 89
73 | CCOC(=O)C(Br)CCC(Br)C(=O)OCC (stereo not given) | 66 to 68
74 | CCCCCCC(O)CC (stereo not given) | 22
75 | O=C(O)C(O)C(=O)O | 157
76 | CC(=O)C(=O)c1cc(C(=O)C(C)=O)c([N+](=O)[O-])cc1[N+](=O)[O-] | 119
77 | C=CC(=O)NC(C)(C)CS(=O)(=O)O | 195
78 | Cc1ccc(C(=O)CBr)c(C)c1 | 44
79 | Cc1cc(C)c(S(=O)(=O)NN)c(C)c1 | 114
80 | OCCCCC(O)CO (stereo not given) | 25 to 32
81 | CCC(C)Cn1c(O)nnc1S (stereo not given) | 147 to 151
82 | O=C(O)c1cc([N+](=O)[O-])c(O)c([N+](=O)[O-])c1 | 250
83 | COC(=O)c1c(C(F)F)nc(C(F)(F)F)c(C2=NCCS2)c1CC(C)C | 78
84 | Cc1cc2nc3c(=O)[nH]c(=O)nc-3n(CC(O)C(O)C(O)CO)c2cc1C (stereo not given) | 290
85 | O=Cc1scc2c1OCCO2 | 138 to 140
86 | O=C1c2ccccc2C(=O)C1C(=O)C(c1ccccc1)c1ccc(Cl)cc1 (stereo not given) | 140
87 | Clc1cc(I)ccn1 | 43
88 | CCOC(=O)C(C)(C)C1=CCC2(C)C(CCC3C2CCC2(C)C(OCc4ccccc4)CCC32)C1 (stereo not given) | 138
89 | FC1(F)C(F)(F)C(F)(F)C2(F)C(F)(F)C(F)(F)C(F)(F)C(F)(F)C2(F)C1(F)F (stereo not given) | -10

Row | SMILES | melting point [°C]
90 | C=C=N | -78
91 | C=C(C)C(=O)OCCN(C)C | -30
92 | O=c1[nH]c(=O)n(C2CCCO2)cc1F (stereo not given) | 172
93 | CN(C(=O)OC(C)(C)C)C(C)(C)C(=O)O | 153 to 157
94 | CC#CC(C)CC (stereo not given) | -108
95 | CC(CCC(O)(Cl)Cl)C1CCC2C3C(O)CC4CC(O)CCC4(C)C3CC(O)C12C (stereo not given) | 162 to 170
96 | CCC(C)c1ccc(O)cc1 (stereo not given) | 61.5
97 | O=C(O)c1cc(Br)cc2c1OCC2 | 230
98 | CCCCSc1sc(C(=O)OCC)c2c1C(=O)CCC2 | 70 to 73
99 | OCC(F)(F)C(F)(F)C(F)(F)C(F)(F)C(F)(F)C(F)(F)C(F)(F)C(F)(F)C(F)(F)F | 87 to 91
100 | OCC(I)CC(F)(F)C(F)(F)C(F)(F)C(F)(F)C(F)(F)C(F)(F)F (stereo not given) | 45 to 46
101 | CC12CCC(=O)C=C1CCC1C2C(O)CC2(C)C(C(=O)CO)CCC12 (stereo not given) | 181
102 | NCC(=O)NO | 156
103 | COc1ccc2[nH]c3c(c2c1)CCNC3C (stereo not given) | 150
104 | C=CCSc1nc(=O)[nH]c2c1CCCC2 | 207 to 209
105 | Cc1cc(N=Nc2ccccc2C)ccc1N | 101 to 102
106 | CC(=O)C(C(=O)OC1CC(C)CCC1C(C)C)C(C)C(C(C)=O)C(=O)OC1CC(C)CCC1C(C)C (stereo not given) | 200
107 | O=C(CBr)Nc1ccccc1Cl | 89 to 91
108 | O=[N+]([O-])c1c(Cl)cc(Cl)cc1C(Cl)Cl | 45
109 | FC(Cl)(Cl)c1ccccc1 | -26.8
110 | FC(Cl)=C(F)Cl | -130

Row | SMILES | melting point [°C]
111 | ClCc1nc2ccccc2[nH]1 | 146 to 150
112 | O=C1CCCc2c1c1c3c(ccc4c3c2CCC4)CCC1 | 146 to 149
113 | O=C1NC(=O)C(=NNc2cccc([N+](=O)[O-])c2)C(=O)N1 | 270
114 | O=C1[C@H]2CC[C@@H]1[C@H]1C=C[C@@H]2O1 | 97
115 | c1ccnnc1 | -8
116 | O=S(=O)(Cl)c1c(Cl)ccc2nonc12 | 73 to 75
117 | S=C=Nc1ccc(I)cc1 | 76 to 78
118 | Cc1ccc(N)c([N+](=O)[O-])c1 | 116
119 | CC12CCC(CC1=NO)C2(C)C (stereo not given) | 118
120 | CC1(C)CC(=O)CC(C)(C)N1 | 36
121 | Cc1cc(C)c(N)c(Br)c1 | 44
122 | BrCCCCCCCCCCCCCCBr | 50.4
123 | CC12CCC3C(CCC4=CC(=O)CCC43C)C1CCC2=O (stereo not given) | 170 to 171
124 | CC(C=CC=C(C)C(=O)O)=CC=CC=C(C)C=CC=C(C)C(=O)O | 286
125 | Brc1ccc(Oc2ccccc2Br)c(Br)c1 | < 20
126 | Clc1cc(Cl)c2oc3cc(Cl)c(Cl)cc3c2c1 | 202
127 | CCOC(=O)CCCC(=O)OCC | -24.1
128 | CC(C)(C)OC(=O)C(Cl)(Cl)Cl | 25.5
129 | CC1(C)C2CCC1(C)C(O)/C2=C\CC(=O)O (stereo not given) | 51 to 52
130 | NS(=O)(=O)c1ccc(Cl)s1 | 117
